Experimental data reported in patent publication US20250382305A1 (PTC THERAPEUTICS, INC., priority 2022, published 2025).

Key:
[1] = tested on: Total ATXN3 (tATXN3) protein; experiment: Endogenous Total ATXN3 (tATXN3) Protein Assay (MSD immunoassay of cell lysates); format: cell-based; conditions: average IC50, total ATXN3 protein in cell lysate after 48 h with compound (Table 1)
In short: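 Cells in DMEM/10% FBS were plated at 10,000 per well onto 7-point, 3.16-fold compound dilutions in duplicate for 48 h at 37° C, then lysed. Total ATXN3 in lysates was measured by MSD sandwich immunoassay: mouse anti-ATXN3 capture, rabbit anti-ATXN3 detection, SULFO-TAG anti-rabbit. Average IC50 was reported in star bins.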

ATXN3 pre-mRNA = experiment: RT-qPCR Assay to Quantify Exon 4 Skipping in ATXN3 pre-mRNA in Cells; format: cell-based; conditions: percent exon 4 skipping in ATXN3 pre-mRNA, RT-qPCR of cell lysates; average IC50
In short: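 Cells plated at 10,000/well onto a 7-point, 3.16-fold DMSO dilution series (duplicates), incubated 24 h at 37 °C, then lysed. Exon 4 skipping measured by one-step RT-qPCR (48 °C RT, 40 cycles); IC50 interpolated from dose-response fit of percent skipping.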

SMILES	IC50 [1]	IC50 (ATXN3 pre-mRNA)
NC1CCCOC1c1sc2c(NCc3ccccc3F)cc(Cl)nc2c1Cl (mixture of isomers) [Compound 24, 2-((2R,3R)-3-aminotetrahydro-2H-pyran-2-yl)-3,5-dichloro-N-(2-fluorobenzyl)thieno[3,2-b]pyridin-7-amine and 2-((2S,3S)-3-aminotetrahydro-2H-pyran-2-yl)-3,5-dichloro-N-(2-fluorobenzyl)thieno[3,2-b]pyridin-7-amine]	30 to 300 nM	30 to 300 nM
N[C@@H]1CCCO[C@H]1c1sc2c(NCc3ccccc3F)cc(Cl)nc2c1Br.N[C@H]1CCCO[C@@H]1c1sc2c(NCc3ccccc3F)cc(Cl)nc2c1Br (mixture of isomers) [Compound 29, 2-((2R,3R)-3-aminotetrahydro-2H-pyran-2-yl)-3-bromo-5-chloro-N-(2-fluorobenzyl)thieno[3,2-b]pyridin-7-amine and 2-((2S,3S)-3-aminotetrahydro-2H-pyran-2-yl)-3-bromo-5-chloro-N-(2-fluorobenzyl)thieno[3,2-b]pyridin-7-amine]	30 to 300 nM	30 to 300 nM
N[C@@H]1CC(F)(F)CC[C@@H]1c1sc2c(NCc3cccs3)cc(Cl)nc2c1Br.N[C@H]1CC(F)(F)CC[C@H]1c1sc2c(NCc3cccs3)cc(Cl)nc2c1Br (mixture of isomers) [Compound 30, 2-((1R,2S)-2-amino-4,4-difluorocyclohexyl)-3-bromo-5-chloro-N-(thiophen-2-ylmethyl)thieno[3,2-b]pyridin-7-amine and 2-((1S,2R)-2-amino-4,4-difluorocyclohexyl)-3-bromo-5-chloro-N-(thiophen-2-ylmethyl)thieno[3,2-b]pyridin-7-amine]	> 1000 nM	> 1000 nM
N[C@@H]1CCCN[C@H]1c1sc2c(NCc3cccs3)cc(Cl)nc2c1Br.N[C@H]1CCCN[C@@H]1c1sc2c(NCc3cccs3)cc(Cl)nc2c1Br (mixture of isomers) [Compound 47, 2-((2R,3R)-3-aminopiperidin-2-yl)-3-bromo-5-chloro-N-(thiophen-2-ylmethyl)thieno[3,2-b]pyridin-7-amine and 2-((2S,3S)-3-aminopiperidin-2-yl)-3-bromo-5-chloro-N-(thiophen-2-ylmethyl)thieno[3,2-b]pyridin-7-amine]	> 1000 nM	300 to 1000 nM
N[C@H]1CCCN(c2ccccc2)[C@@H]1c1sc2c(NCc3cccs3)cc(Cl)nc2c1Br (mixture of isomers) [Compound 124, 2-((2R,3R)-3-amino-1-phenylpiperidin-2-yl)-3-bromo-5-chloro-N-(thiophen-2-ylmethyl)thieno[3,2-b]pyridin-7-amine and 2-((2S,3S)-3-amino-1-phenylpiperidin-2-yl)-3-bromo-5-chloro-N-(thiophen-2-ylmethyl)thieno[3,2-b]pyridin-7-amine]	> 1000 nM	> 1000 nM
N[C@@H]1[C@@H](O)C=CC[C@H]1c1sc2c(NCc3cccs3)cc(Cl)nc2c1Cl.N[C@H]1[C@H](O)C=CC[C@@H]1c1sc2c(NCc3cccs3)cc(Cl)nc2c1Cl (mixture of isomers) [Compound 127, (1R,5S,6R)-6-amino-5-(3,5-dichloro-7-((thiophen-2-ylmethyl)amino)thieno[3,2-b]pyridin-2-yl)cyclohex-2-en-1-ol and (1S,5R,6S)-6-amino-5-(3,5-dichloro-7-((thiophen-2-ylmethyl)amino)thieno[3,2-b]pyridin-2-yl)cyclohex-2-en-1-ol]	30 to 300 nM	30 to 300 nM
N[C@@H]1CCNCC[C@H]1c1sc2c(NCc3cccs3)cc(Cl)nc2c1Br.N[C@H]1CCNCC[C@@H]1c1sc2c(NCc3cccs3)cc(Cl)nc2c1Br (mixture of isomers) [Compound 147, 2-((4R,5R)-5-aminoazepan-4-yl)-3-bromo-5-chloro-N-(thiophen-2-ylmethyl)thieno[3,2-b]pyridin-7-amine and 2-((4S,5S)-5-aminoazepan-4-yl)-3-bromo-5-chloro-N-(thiophen-2-ylmethyl)thieno[3,2-b]pyridin-7-amine]	> 1000 nM	> 1000 nM
N[C@@H]1CC=CC[C@H]1c1sc2c(NCc3cccs3)cc(Cl)nc2c1C#CCCCO.N[C@H]1CC=CC[C@@H]1c1sc2c(NCc3cccs3)cc(Cl)nc2c1C#CCCCO (mixture of isomers) [Compound 175, 5-(2-((1R,6R)-6-aminocyclohex-3-en-1-yl)-5-chloro-7-((thiophen-2-ylmethyl)amino)thieno[3,2-b]pyridin-3-yl)pent-4-yn-1-ol and 5-(2-((1S,6S)-6-aminocyclohex-3-en-1-yl)-5-chloro-7-((thiophen-2-ylmethyl)amino)thieno[3,2-b]pyridin-3-yl)pent-4-yn-1-ol]	≤ 30 nM	≤ 30 nM
CC#Cc1c(C2[C@@H](N)CCCC2(F)F)sc2c(NCc3cccs3)cc(Cl)nc12.CC#Cc1c(C2[C@H](N)CCCC2(F)F)sc2c(NCc3cccs3)cc(Cl)nc12 (mixture of isomers) [Compound 208, 2-((6R)-6-amino-2,2-difluorocyclohexyl)-5-chloro-3-(prop-1-yn-1-yl)-N-(thiophen-2-ylmethyl)thieno[3,2-b]pyridin-7-amine and 2-((6S)-6-amino-2,2-difluorocyclohexyl)-5-chloro-3-(prop-1-yn-1-yl)-N-(thiophen-2-ylmethyl)thieno[3,2-b]pyridin-7-amine]	≤ 30 nM	≤ 30 nM
N[C@@H]1CC=CC[C@H]1c1sc2c(NCc3cccs3)cc(Cl)nc2c1I.N[C@H]1CC=CC[C@@H]1c1sc2c(NCc3cccs3)cc(Cl)nc2c1I (mixture of isomers) [Compound 209, 2-((1R,6R)-6-aminocyclohex-3-en-1-yl)-5-chloro-3-iodo-N-(thiophen-2-ylmethyl)thieno[3,2-b]pyridin-7-amine and 2-((1S,6S)-6-aminocyclohex-3-en-1-yl)-5-chloro-3-iodo-N-(thiophen-2-ylmethyl)thieno[3,2-b]pyridin-7-amine]	≤ 30 nM	≤ 30 nM
N[C@@H]1CCCO[C@H]1c1sc2c(NCc3cccs3)cc(Cl)nc2c1C#CCCO.N[C@H]1CCCO[C@@H]1c1sc2c(NCc3cccs3)cc(Cl)nc2c1C#CCCO (mixture of isomers) [Compound 213, 4-(2-((2R,3R)-3-aminotetrahydro-2H-pyran-2-yl)-5-chloro-7-((thiophen-2-ylmethyl)amino)thieno[3,2-b]pyridin-3-yl)but-3-yn-1-ol and 4-(2-((2S,3S)-3-aminotetrahydro-2H-pyran-2-yl)-5-chloro-7-((thiophen-2-ylmethyl)amino)thieno[3,2-b]pyridin-3-yl)but-3-yn-1-ol]	≤ 30 nM	≤ 30 nM
N[C@@H]1CC=CC[C@H]1c1sc2c(NCc3cccs3)nc(Cl)nc2c1Cl.N[C@H]1CC=CC[C@@H]1c1sc2c(NCc3cccs3)nc(Cl)nc2c1Cl (mixture of isomers) [Compound 240, 6-((1R,6R)-6-aminocyclohex-3-en-1-yl)-2,7-dichloro-N-(thiophen-2-ylmethyl)thieno[3,2-d]pyrimidin-4-amine and 6-((1S,6S)-6-aminocyclohex-3-en-1-yl)-2,7-dichloro-N-(thiophen-2-ylmethyl)thieno[3,2-d]pyrimidin-4-amine]	≤ 30 nM	≤ 30 nM
N[C@H]1CCCO[C@@H]1c1sc2c(NCc3cccs3)cc(Cl)nc2c1C#CCO (mixture of isomers) [Compound 252, 3-(2-((2R,3R)-3-aminotetrahydro-2H-pyran-2-yl)-5-chloro-7-((thiophen-2-ylmethyl)amino)thieno[3,2-b]pyridin-3-yl)prop-2-yn-1-ol and 3-(2-((2S,3S)-3-aminotetrahydro-2H-pyran-2-yl)-5-chloro-7-((thiophen-2-ylmethyl)amino)thieno[3,2-b]pyridin-3-yl)prop-2-yn-1-ol]	30 to 300 nM	≤ 30 nM
N[C@@H]1CCCO[C@H]1c1sc2c(NCc3ccco3)nc(Cl)nc2c1C#CCO.N[C@H]1CCCO[C@@H]1c1sc2c(NCc3ccco3)nc(Cl)nc2c1C#CCO (mixture of isomers) [Compound 255, 3-(6-((2R,3R)-3-aminotetrahydro-2H-pyran-2-yl)-2-chloro-4-((furan-2-ylmethyl)amino)thieno[3,2-d]pyrimidin-7-yl)prop-2-yn-1-ol and 3-(6-((2S,3S)-3-aminotetrahydro-2H-pyran-2-yl)-2-chloro-4-((furan-2-ylmethyl)amino)thieno[3,2-d]pyrimidin-7-yl)prop-2-yn-1-ol]	30 to 300 nM	≤ 30 nM
N[C@@H]1CCCC[C@H]1c1sc2c(NCc3cccs3)cc(Cl)nc2c1COC(F)F.N[C@H]1CCCC[C@@H]1c1sc2c(NCc3cccs3)cc(Cl)nc2c1COC(F)F (mixture of isomers) [Compound 257, 2-((1S,2S)-2-aminocyclohexyl)-5-chloro-3-((difluoromethoxy)methyl)-N-(thiophen-2-ylmethyl)thieno[3,2-b]pyridin-7-amine and 2-((1R,2R)-2-aminocyclohexyl)-5-chloro-3-((difluoromethoxy)methyl)-N-(thiophen-2-ylmethyl)thieno[3,2-b]pyridin-7-amine]	30 to 300 nM	≤ 30 nM
N[C@@H]1COCC[C@H]1c1sc2c(NCc3cccs3)cc(Cl)nc2c1Cl.N[C@H]1COCC[C@@H]1c1sc2c(NCc3cccs3)cc(Cl)nc2c1Cl (mixture of isomers) [Compound 272, 2-((3R,4S)-3-aminotetrahydro-2H-pyran-4-yl)-3,5-dichloro-N-(thiophen-2-ylmethyl)thieno[3,2-b]pyridin-7-amine and 2-((3S,4R)-3-aminotetrahydro-2H-pyran-4-yl)-3,5-dichloro-N-(thiophen-2-ylmethyl)thieno[3,2-b]pyridin-7-amine]	30 to 300 nM	30 to 300 nM
